According to US20110044969A1, “Antimicrobial Agents for the Treatment of Campylobacter Species in the Crop of a Bird” (NOFIMA MAT AS, priority 2008, published 2011):

Tested on: C. jejuni strain 484, strain 523 and strain 534
Conditions: pH 6.0 and 6.5; acid 0.1, 0.01, 0.001, 0.0001%; 48 hours at 42° C. microaerophilic; growth by spectrophotometer; all three strains
Procedure: Three C. jejuni strains were compared in vitro for sensitivity for benzoic acid and sorbic acid at two different pH values. These strains were C. jejuni strain 484 (from poultry leg), C. jejuni strain 523 (from poultry faeces), and C. jejuni strain 534 (from poultry faeces). Different combinations of pH (6.0 and 6.5) and concentrations of the acids (0.1, 0.01, 0.001, and 0.0001%) were tested in Mueller-Hinton broth (MH) with supplement for Campylobacter (SR232E; Oxoid Ltd., Basingstoke, UK). The strains were incubated in microaerophilic atmosphere for 48 hours at 42° C., and growth was measured by spectrophotometer.
Three C. jejuni strains were tested for in vitro growth at different combinations of pH (6.0 and 6.5) and concentrations of sorbic- and benzoic acid (0.1, 0.01, 0.001, and 0.0001%).

C/C=C/C=C/C(=O)O [sorbic acid]
in vitro growth reduction of C. jejuni: highest growth reduction
